Laboratory results taken from the supplement of paper PMC10307832.

Legend:
Experiment in all cases: relative viability (nuclei count vs DMSO), 5 days (fraction); higher = more cells survive
EKVX = test system: EKVX
Summary of the method: (§1)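 Lung cancer cell lines were pin-tool dosed in 1536-well plates on the day after seeding, with either a lone drug or a fixed anchor-drug dose plus five library-drug doses (not always all listed) in √10 steps. Nuclei were counted on 4× images after 5 days. Relative viability is the ratio of treated-well to vehicle-well nuclei counts, with each value a median of duplicate plates.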

LCLC-97TM1 = test system: LCLC-97TM1
Summary of the method: as §1

NCI-H1437 = test system: NCI-H1437
Summary of the method: as §1

NCI-H1650 = test system: NCI-H1650
Summary of the method: as §1

NCI-H1666 = test system: NCI-H1666
Summary of the method: as §1

NCI-H1792 = test system: NCI-H1792
Summary of the method: as §1

NCI-H1915 = test system: NCI-H1915
Summary of the method: as §1

NCI-H1975 = test system: NCI-H1975
Summary of the method: as §1

NCI-H2342 = test system: NCI-H2342
Summary of the method: as §1

NCI-H23 = test system: NCI-H23
Summary of the method: as §1

NCI-H322M = test system: NCI-H322M
Summary of the method: as §1

NCI-H358 = test system: NCI-H358
Summary of the method: as §1

NCI-H441 = test system: NCI-H441
Summary of the method: as §1

NCI-H460 = test system: NCI-H460
Summary of the method: as §1

NCI-H520 = test system: NCI-H520
Summary of the method: as §1

NCI-H522 = test system: NCI-H522
Summary of the method: as §1

NCI-H596 = test system: NCI-H596
Summary of the method: as §1

NCI-H647 = test system: NCI-H647
Summary of the method: as §1

NCI-H661 = test system: NCI-H661
Summary of the method: as §1

NCI-H727 = test system: NCI-H727
Summary of the method: as §1

NCI-H838 = test system: NCI-H838
Summary of the method: as §1

PC-3 [JPC-3] = test system: PC-3 [JPC-3]
Summary of the method: as §1

SK-LU-1 = test system: SK-LU-1
Summary of the method: as §1

## Cc1csc(=NC2CCCCC2)n1/N=C/c1ccc(O)c(O)c1O [MIM1] + O=C(c1cc(Cc2n[nH]c(=O)c3ccccc23)ccc1F)N1CCN(C(=O)C2CC2)CC1 [Olaparib] (partner 8 µM)
EKVX; first compound 0.2 µM
  relative viability: 0.776
EKVX; first compound 0.6325 µM
  relative viability: 0.785
EKVX; first compound 2 µM
  relative viability: 0.59
EKVX; first compound 6.325 µM
  relative viability: 0.51
EKVX; first compound 20 µM
  relative viability: 0.412
LCLC-97TM1; first compound 0.2 µM
  relative viability: 0.436
LCLC-97TM1; first compound 0.6325 µM
  relative viability: 0.46
LCLC-97TM1; first compound 2 µM
  relative viability: 0.343
LCLC-97TM1; first compound 6.325 µM
  relative viability: 0.24
LCLC-97TM1; first compound 20 µM
  relative viability: 0.0564
NCI-H1437; first compound 0.2 µM
  relative viability: 0.615
NCI-H1437; first compound 0.6325 µM
  relative viability: 0.644
NCI-H1437; first compound 2 µM
  relative viability: 0.58
NCI-H1437; first compound 6.325 µM
  relative viability: 0.192
NCI-H1437; first compound 20 µM
  relative viability: 0.206
NCI-H1650; first compound 0.2 µM
  relative viability: 0.627
NCI-H1650; first compound 0.6325 µM
  relative viability: 0.828
NCI-H1650; first compound 2 µM
  relative viability: 0.499
NCI-H1650; first compound 6.325 µM
  relative viability: 0.226
NCI-H1650; first compound 20 µM
  relative viability: 0.233
NCI-H1666; first compound 0.2 µM
  relative viability: 0.71
NCI-H1666; first compound 0.6325 µM
  relative viability: 0.739
NCI-H1666; first compound 2 µM
  relative viability: 0.665
NCI-H1666; first compound 6.325 µM
  relative viability: 0.72
NCI-H1666; first compound 20 µM
  relative viability: 0.707
NCI-H1792; first compound 0.2 µM
  relative viability: 0.469
NCI-H1792; first compound 0.6325 µM
  relative viability: 0.368
NCI-H1792; first compound 2 µM
  relative viability: 0.454
NCI-H1792; first compound 6.325 µM
  relative viability: 0.279
NCI-H1792; first compound 20 µM
  relative viability: 0.398
NCI-H1915; first compound 0.2 µM
  relative viability: 0.255
NCI-H1915; first compound 0.6325 µM
  relative viability: 0.248
NCI-H1915; first compound 2 µM
  relative viability: 0.236
NCI-H1915; first compound 6.325 µM
  relative viability: 0.203
NCI-H1915; first compound 20 µM
  relative viability: 0.133
NCI-H1975; first compound 0.2 µM
  relative viability: 0.737
NCI-H1975; first compound 0.6325 µM
  relative viability: 0.755
NCI-H1975; first compound 2 µM
  relative viability: 0.778
NCI-H1975; first compound 6.325 µM
  relative viability: 0.307
NCI-H1975; first compound 20 µM
  relative viability: 0.17
NCI-H2342; first compound 0.2 µM
  relative viability: 0.432
NCI-H2342; first compound 0.6325 µM
  relative viability: 0.386
NCI-H2342; first compound 2 µM
  relative viability: 0.42
NCI-H2342; first compound 6.325 µM
  relative viability: 0.395
NCI-H2342; first compound 20 µM
  relative viability: 0.571
NCI-H23; first compound 0.2 µM
  relative viability: 0.302
NCI-H23; first compound 0.6325 µM
  relative viability: 0.266
NCI-H23; first compound 2 µM
  relative viability: 0.215
NCI-H23; first compound 6.325 µM
  relative viability: 0.111
NCI-H23; first compound 20 µM
  relative viability: 0.13
NCI-H322M; first compound 0.2 µM
  relative viability: 0.742
NCI-H322M; first compound 0.6325 µM
  relative viability: 0.683
NCI-H322M; first compound 2 µM
  relative viability: 0.72
NCI-H322M; first compound 6.325 µM
  relative viability: 0.746
NCI-H322M; first compound 20 µM
  relative viability: 0.367
NCI-H358; first compound 0.2 µM
  relative viability: 0.558
NCI-H358; first compound 0.6325 µM
  relative viability: 0.533
NCI-H358; first compound 2 µM
  relative viability: 0.516
NCI-H358; first compound 6.325 µM
  relative viability: 0.379
NCI-H358; first compound 20 µM
  relative viability: 0.123
NCI-H441; first compound 0.2 µM
  relative viability: 0.485
NCI-H441; first compound 0.6325 µM
  relative viability: 0.66
NCI-H441; first compound 2 µM
  relative viability: 0.581
NCI-H441; first compound 6.325 µM
  relative viability: 0.254
NCI-H441; first compound 20 µM
  relative viability: 0.144
NCI-H460; first compound 0.2 µM
  relative viability: 0.403
NCI-H460; first compound 0.6325 µM
  relative viability: 0.411
NCI-H460; first compound 2 µM
  relative viability: 0.195
NCI-H460; first compound 6.325 µM
  relative viability: 0.213
NCI-H460; first compound 20 µM
  relative viability: 0.0637
NCI-H520; first compound 0.2 µM
  relative viability: 0.333
NCI-H520; first compound 0.6325 µM
  relative viability: 0.346
NCI-H520; first compound 2 µM
  relative viability: 0.349
NCI-H520; first compound 6.325 µM
  relative viability: 0.242
NCI-H520; first compound 20 µM
  relative viability: 0.209
NCI-H522; first compound 0.2 µM
  relative viability: 0.597
NCI-H522; first compound 0.6325 µM
  relative viability: 0.625
NCI-H522; first compound 2 µM
  relative viability: 0.587
NCI-H522; first compound 6.325 µM
  relative viability: 0.725
NCI-H522; first compound 20 µM
  relative viability: 0.466
NCI-H596; first compound 0.2 µM
  relative viability: 0.741
NCI-H596; first compound 0.6325 µM
  relative viability: 0.73
NCI-H596; first compound 2 µM
  relative viability: 0.694
NCI-H596; first compound 6.325 µM
  relative viability: 0.626
NCI-H596; first compound 20 µM
  relative viability: 0.491
NCI-H647; first compound 0.2 µM
  relative viability: 0.611
NCI-H647; first compound 0.6325 µM
  relative viability: 0.53
NCI-H647; first compound 2 µM
  relative viability: 0.697
NCI-H647; first compound 6.325 µM
  relative viability: 0.369
NCI-H647; first compound 20 µM
  relative viability: 0.0666
NCI-H661; first compound 0.2 µM
  relative viability: 0.696
NCI-H661; first compound 0.6325 µM
  relative viability: 0.715
NCI-H661; first compound 2 µM
  relative viability: 0.778
NCI-H661; first compound 6.325 µM
  relative viability: 0.499
NCI-H661; first compound 20 µM
  relative viability: 0.316
NCI-H727; first compound 0.2 µM
  relative viability: 0.7
NCI-H727; first compound 0.6325 µM
  relative viability: 0.721
NCI-H727; first compound 2 µM
  relative viability: 0.526
NCI-H727; first compound 6.325 µM
  relative viability: 0.748
NCI-H727; first compound 20 µM
  relative viability: 0.523
NCI-H838; first compound 0.2 µM
  relative viability: 0.731
NCI-H838; first compound 0.6325 µM
  relative viability: 0.944
NCI-H838; first compound 2 µM
  relative viability: 0.85
NCI-H838; first compound 6.325 µM
  relative viability: 0.609
NCI-H838; first compound 20 µM
  relative viability: 0.237
PC-3 [JPC-3]; first compound 0.2 µM
  relative viability: 1.14
PC-3 [JPC-3]; first compound 0.6325 µM
  relative viability: 1.04
PC-3 [JPC-3]; first compound 2 µM
  relative viability: 1.07
PC-3 [JPC-3]; first compound 6.325 µM
  relative viability: 0.871
PC-3 [JPC-3]; first compound 20 µM
  relative viability: 0.504
SK-LU-1; first compound 0.2 µM
  relative viability: 0.447
SK-LU-1; first compound 0.6325 µM
  relative viability: 0.559
SK-LU-1; first compound 2 µM
  relative viability: 0.575
SK-LU-1; first compound 6.325 µM
  relative viability: 0.281
SK-LU-1; first compound 20 µM
  relative viability: 0.299
